Structures are written as SMILES. Values joined by “and” are separate entries in the source; they are usually repeats but may differ in a detail not shown here. Equal values may be shown once. Numbers after ± are expanded uncertainties.

The values below come from the NIST ThermoML archive (doi:10.1021/acs.jced.8b00854).

A short description of data set [1]: refractive index (Na D-line) (dimensionless). The note with it: 100 kPa, Liquid, Standard Abbe refractometry.
For data set [2] the following is noted: 100 kPa, Liquid, Vibrating tube method.
The nature of data set [3]: refractive index (Na D-line) (dimensionless); xn = mol fraction of the nth substance listed. The conditions noted are these: 100 kPa, Liquid, Standard Abbe refractometry, x2 = 0.
Data set [4] is described as follows: xn = mol fraction of the nth substance listed. The note with it: 100 kPa, Liquid, Vibrating tube method, x2 = 0.

For orientation: refractive index means a measure of how strongly the sample bends light. Usually mass density stands for the mass of a sample divided by its volume. For the compound `O` [water], the refractive index in data set [1] (293.15 K) came to 1.3335 ± 0.0016; in data set [1] (303.15 K), 1.3315 ± 0.0016; in data set [1] (313.15 K), 1.3305 ± 0.0016; in data set [1] (323.15 K), 1.329 ± 0.0016; in data set [1] (333.15 K), 1.3275 ± 0.0016; in data set [1] (343.15 K), 1.326 ± 0.0016. Further, the mass density in data set [2] (323.15 K) is 988.04 ± 2 kg/m3; in data set [2] (333.15 K), 981.56 ± 2 kg/m3 and 988.04 ± 2 kg/m3; in data set [2] (343.15 K), 972.75 ± 2 kg/m3.
With `O` [water] + CCCCCCCCOS(=O)(=O)[O-].CCCCn1cc[n+](C)c1, the refractive index in data set [3] (293.15 K) amounted to 1.3335 ± 0.0016; in data set [3] (303.15 K), 1.3315 ± 0.0016; in data set [3] (313.15 K) it was 1.3305 ± 0.0016; in data set [3] (323.15 K) it was 1.329 ± 0.0016; in data set [3] (333.15 K), 1.3275 ± 0.0016; in data set [3] (343.15 K), 1.326 ± 0.0016. The values for the mass density in data set [4] (323.15 K), in data set [4] (333.15 K) and in data set [4] (343.15 K) were 988.04 ± 2 kg/m3, 981.56 ± 2 kg/m3 and 972.75 ± 2 kg/m3, respectively.
For `O` [water] + CCCCCCCC[n+]1ccn(C)c1.F[B-](F)(F)F, the refractive index amounted to 1.3335 ± 0.0016 in data set [3] (293.15 K); 1.3315 ± 0.0016 in data set [3] (303.15 K); 1.3305 ± 0.0016 in data set [3] (313.15 K); 1.329 ± 0.0016 in data set [3] (323.15 K); 1.3275 ± 0.0016 in data set [3] (333.15 K); 1.326 ± 0.0016 in data set [3] (343.15 K). For the same compound, the mass density amounted to 988.04 ± 2 kg/m3 in data set [4] (323.15 K), 988.04 ± 2 kg/m3 in data set [4] (333.15 K) and 972.75 ± 2 kg/m3 in data set [4] (343.15 K).
Take `O` [water] + CCCCCCn1cc[n+](C)c1.F[B-](F)(F)F: the refractive index in data set [3] (293.15 K) is reported as 1.3335 ± 0.0016; in data set [3] (303.15 K), 1.3315 ± 0.0016; in data set [3] (313.15 K) it was 1.3305 ± 0.0016; in data set [3] (323.15 K) it was 1.329 ± 0.0016; in data set [3] (333.15 K), 1.3275 ± 0.0016; in data set [3] (343.15 K), 1.326 ± 0.0016. Moreover, the mass density stood at 988.04 ± 2 kg/m3 in data set [4] (323.15 K), 981.56 ± 2 kg/m3 in data set [4] (333.15 K) and 972.75 ± 2 kg/m3 in data set [4] (343.15 K).
Consider `O` [water] + CCCCn1cc[n+](C)c1.F[B-](F)(F)F, for which the refractive index in data set [3] (293.15 K) was determined as 1.3335 ± 0.0016; in data set [3] (303.15 K), 1.3315 ± 0.0016; in data set [3] (313.15 K), 1.3305 ± 0.0016; in data set [3] (323.15 K), 1.329 ± 0.0016; in data set [3] (333.15 K) it was 1.3275 ± 0.0016; in data set [3] (343.15 K) it was 1.326 ± 0.0016. Also, the mass density in data set [4] (323.15 K) is 988.04 ± 2 kg/m3; in data set [4] (333.15 K), 981.56 ± 2 kg/m3; in data set [4] (343.15 K) it was 972.75 ± 2 kg/m3.
With `O` [water] + CCCCn1cc[n+](C)c1.O=S(=O)([O-])C(F)(F)F, the refractive index in data set [3] (293.15 K) was 1.3335 ± 0.0016; in data set [3] (303.15 K), 1.3315 ± 0.0016; in data set [3] (313.15 K), 1.3305 ± 0.0016; in data set [3] (323.15 K) it was 1.329 ± 0.0016; in data set [3] (333.15 K), 1.3275 ± 0.0016; in data set [3] (343.15 K), 1.326 ± 0.0016. In addition, the mass density in data set [4] (323.15 K) was found to be 988.04 ± 2 kg/m3; in data set [4] (333.15 K), 981.56 ± 2 kg/m3; in data set [4] (343.15 K) it was 972.75 ± 2 kg/m3.
As to `O` [water] + CCn1cc[n+](C)c1.F[B-](F)(F)F, the refractive index in data set [3] (293.15 K) turned out to be 1.3335 ± 0.0016; in data set [3] (303.15 K) it was 1.3315 ± 0.0016; in data set [3] (313.15 K), 1.3305 ± 0.0016; in data set [3] (323.15 K), 1.329 ± 0.0016; in data set [3] (333.15 K), 1.3275 ± 0.0016; in data set [3] (343.15 K), 1.326 ± 0.0016. The mass density in data set [4] (323.15 K) was determined as 988.04 ± 2 kg/m3; in data set [4] (333.15 K), 981.56 ± 2 kg/m3; in data set [4] (343.15 K), 972.75 ± 2 kg/m3.
`O` [water] + CCn1cc[n+](C)c1.O=S(=O)([O-])C(F)(F)F: the refractive index in data set [3] (293.15 K) was 1.3335 ± 0.0016; in data set [3] (303.15 K) it was 1.3315 ± 0.0016; in data set [3] (313.15 K), 1.3305 ± 0.0016; in data set [3] (323.15 K), 1.329 ± 0.0016; in data set [3] (333.15 K), 1.3275 ± 0.0016; in data set [3] (343.15 K), 1.326 ± 0.0016. Moreover, the figures for the mass density in data set [4] (323.15 K), in data set [4] (333.15 K) and in data set [4] (343.15 K) were 988.04 ± 2 kg/m3, 981.56 ± 2 kg/m3 and 972.75 ± 2 kg/m3, respectively.
